We go through two compounds from patent US20260263401A1, “Topical composition and uses thereof” (UNIVERSIDADE DE COIMBRA, priority 2022, published 2026).

In series [1] the test system is keratinocyte cell line (HaCat). Kind of series: Metabolic activity of human keratinocytes (Resazurin Assay). It counts as cell-based.
For series [2], the system named is THP-1 cells. As to the kind of experiment: Maturation of THP-1 cells assessed by up-regulation of co-stimulatory molecules CD86 and CD54. On the procedure: In an embodiment, the THP-1 cell line has been used as a dendritic cell (DC) surrogate for skin sensitizers hazard, following the OECD guidelines. […] The THP-1 cells are stabilized overnight at a density of 5×10^5 cells/mL. On the day after, cells are seeded in 12-well plates at a density of 8×10^5 cells/well and incubated for 24 h with medium (control), Dimethyl sulfoxide (DMSO) (allergens solvent) or with 20 mM of each inhibitor of ACD (NAC), (LYS) or mixture (NAC+LYS). In addition, sensitization is induced with the strong skin allergen 1-fluoro-2,4-dinitrobenzene (DNFB) (8 μM) or Methylisothiazolinone (MI) (100 μM) for 24 h. At the end of the incubation period, cells are washed with ice-cold PBS supplemented with 1% (v/v) inactivated FBS, centrifuged at 300×g for 5 min at 4° C. and pellets are dissolved in ice-cold PBS supplemented with 1% (v/v) inactivated FBS. Then, 100 µL of the cell suspension are incubated with, or without, 3 μL of anti-human CD54 antibody (#353111, Biolegend, San Diego, CA, USA) or anti-human CD86 (#305414, Biolegend, San Diego, CA, USA) antibody for 30 min at 4° C. […] A total of 1×10^4 living cells are considered for analysis. The CD86 and CD54 levels are analyzed by flow cytometry with the acquisition channels FL1 and FL4. Based on the geometric mean fluorescence intensity (MFI), the relative fluorescence intensity (RFI) of CD86 and CD54 for positive control cells and chemical-treated cells is calculated according to the following equation: […]

Series [3] in a line: In vitro permeation studies (IVPT), Franz cells. It counts as in vitro ADME, human. The following applies: formulated in the hydrogel, single application, up to 24 h, non-occlusive. The source says: In an embodiment, the same vertical diffusional system of IVRT studies was used to evaluate the potential in vitro penetration of the active molecules. Human surgical skin pieces (person, type 3 skin, arm tissue) were surgically removed at Central Lisbon University Hospital Centre, after the approval of the Bioethics Committee, and processed as described in (Miranda et al., 2020). Written informed consent was obtained from the participant (Process number 447/2017). One day before the experiments, frozen epidermal specimens were left to thaw at room temperate. Afterwards, the skin sheets, with the stratum corneum side facing up, were gently placed on glass flasks filled with ultrapurified water and left to stabilize overnight, at 4° C. […] NAC and LYS were quantified by RP-HPLC, as described in the section above. […]
(§1) In an embodiment, NAC and LYS were quantified by reversed-phase high-pressure liquid chromatography (RP-HPLC), using a Shimadzu LC-2010HT chromatographic system, equipped with an LC-20AD quaternary pump, a SIL-20AHT autosampler, a CTO-10AS over and an SPD-M2OA photodiode array detector. […] Using an injection volume of 50 μL, NAC and LYS were determined at 200 and 215 nm and eluted at 5.4 and 2.2 min, respectively.

The nature of series [4]: In vitro release testing (IVRT), Franz cells, cellulose membrane. It counts as in vitro ADME. To be noted: n=6; for dose depletion: 6 h. On the procedure:
In an embodiment, release studies of the hydrogels were performed on static vertical Franz cells (PermeGear, Inc., USA), with a diffusion circular area of 0.636 cm^2 and a receptor compartment of 5 mL. For that, infinite dose conditions (1 g) of the formulations were applied in the upper compartment, separated from the receptor by a cellulose membrane (MWCO≈14 000 Da, flat width 33 mm, Sigma-Aldrich), previously hydrated in ultrapurified water for at least 30 min. Before the experiments, the system was equilibrated for a minimum of 30 min. The release medium was composed of phosphate buffer pH 5.5 (guaranteeing the maintenance of sink conditions) and continuously stirred at 600 rpm, at 37° C. A circulating water bath maintained the membrane surface temperature at 32° C. During the release studies, the donor compartment, as well as the receptor sampling arm, were carefully covered to avoid medium evaporation, as well as to conduct the experiments under occlusive conditions. At predetermined time points (0.25, 0.5, 0.75, 1, 2, 3, 4 and 6 h), 300 μl of the medium were withdrawn and immediately replenished with fresh medium. NAC and LYS were quantified by HPLC (High-performance liquid chromatography). Release studies were conducted considering n=6 samples.
In an embodiment, the cumulative amount of NAC and LYS released over time was calculated according to the equation:
[formula] • where Cn is the API (active pharmaceutical ingredient) concentration of the receptor medium at each sampling time, Ci is the API concentration of the ith sample, A the effective diffusion area (0.636 cm^2), and VO (5 mL) and Vi (300 μL) the volumes of the receptor compartment and the collected sample, respectively.
In an embodiment, the release rates were retrieved from the slope of the linear regression obtained by plotting the cumulative amount of API diffused per cm^2 as a function of the square root of time. Additionally, mass balance studies were performed to characterize the extent of dose depletion, according to the equation:
[formula] • where Qf reflects the average cumulative amount released at the end of the assay and Qi the initial amount of API placed on the membrane.
as §1

For `NCCCC[C@H](N)C(=O)O` [LYS, lysine], the “cytotoxicity (metabolic activity)” value in series [1] is listed as “do not display cytotoxicity”. In addition, the “levels of the co-stimulatory molecules CD54 and CD86 (RFI), incubated alone” value in series [2] (THP-1, 24 h, 20 mM, no allergen) is recorded as “do not significantly modify”. Moreover, in series [3], the “quantity of the active molecules in the receptor compartment (penetration of stratum corneum of human skin)” value is given as “below the limit of quantification”. Also, in series [4], the dose depletion result is recorded as “roughly 17%” and the “Tlag (time-lagged values)” value is given as “approximately 0 h”.
With `CC(=O)N[C@@H](CS)C(=O)O` [NAC, n-acetyl cysteine], the “cytotoxicity (metabolic activity)” value in series [1] is “do not display cytotoxicity”. Besides, the “CD54 and CD86 maturation levels, pre-incubation before allergen” value in series [2] (pre-incubation (20 mM) before 24 h DNFB (8 μM) and MI (100 μM)) is “significantly decrease”. Also, the “quantity of the active molecules in the receptor compartment (penetration of stratum corneum of human skin)” value in series [3] is listed as “below the limit of quantification”. Further, in series [4], the dose depletion result is reported as “roughly 17%” and the “Tlag (time-lagged values)” value was “approximately 0 h”.
